Patent publication US20080287445A1, “Prokineticin 2 receptor antagonists” (priority 2005, published 2008)
Where “and” joins values, the source holds several entries; their conditions need not be identical. Identical values can stand only once.

Molecular target: T1, GPR73 (prokineticin 1 receptor) (Homo sapiens, UniProt Q8TCW9)
T1 construct: expressed in transfected cells; host or cells: HEK 293
Experiment: PK1 functional assay: Ca2+ mobilization screening for PK1 antagonists on the FLIPR
Type: cell-based
Conditions: HEK 293 GPR73 cells, multiple values = multiple testing; for inhibition at 10 µM: HEK293, 10 μM compound, read-out: Ca^2+ Mobilization % Inh @ 10 μM; for IC50: PK1 ligand preparation at its EC50, read-out: Ca^2+ Mobilization IC50; for Ca^2+ Mobilization % Inh @ 10 μM: 10 μM compound
Protocol: At a time of 24 h prior to running the assay, in cell culture media (DMEM containing high Glucose and L-glutamine, 10% FBS, 1% Pen/Streptomycin, 1% Sodium Pyruvate, 20 mM HEPES, Zeocin 200 mg/L), 100 μL of 1.3*10^6/ml HEK 293 GPR73 (prokineticin 1 receptor) expressing cells were plated in a 96 well poly-d-lysine coated plate (Costar), and incubated at 37 C and 5% CO2. On the day in which the assay was run, the media was removed and 200 μL of 5× Calcium Plus Dye (Molecular Devices) which was previously resuspended with 200 mL of assay buffer [HBSS w/Ca^2+ and Mg^2+ w/o phenol red, 20 mM HEPES, 0.1% BSA, 10 mL probenecid (710 mg probenecid in 5 mL of 1N NaOH, to which was then added 5 mL HBSS containing 20 mM HEPES)] was added to each well of the 96-well plate. The plate was incubated at 37 C and 5% CO2 for 30 min in dark. The plate was removed and allowed to reach RT for 15 min in the dark. The assay was then run on the FLIPR. In Brief: base line read for 1 min, compound added (25 μL) and incubated for 4 min, 15 seconds, PK1 ligand preparation added (25 μL) for a final concentration of a previously determined EC50 and fluorescence was counted for 1 min, 45 seconds. Baseline is described as the amount of relative fluorescence read when buffer alone is added to cells. Baseline was subtracted from all wells. Percent of control was calculated as follows:
(Baseline subtracted well value is divided by baseline subtracted max value)*100. Percent inhibition is 100 minus the percent of control value.
The IC50 is defined as the amount of a given compound required to inhibit 50% of the maximum signal that is generated by the concentration of PK1 preparation used in our assay. IC50 values were calculated using GraphPad Prism.

T1 sequence (Q8TCW9 whole entry, species assumed): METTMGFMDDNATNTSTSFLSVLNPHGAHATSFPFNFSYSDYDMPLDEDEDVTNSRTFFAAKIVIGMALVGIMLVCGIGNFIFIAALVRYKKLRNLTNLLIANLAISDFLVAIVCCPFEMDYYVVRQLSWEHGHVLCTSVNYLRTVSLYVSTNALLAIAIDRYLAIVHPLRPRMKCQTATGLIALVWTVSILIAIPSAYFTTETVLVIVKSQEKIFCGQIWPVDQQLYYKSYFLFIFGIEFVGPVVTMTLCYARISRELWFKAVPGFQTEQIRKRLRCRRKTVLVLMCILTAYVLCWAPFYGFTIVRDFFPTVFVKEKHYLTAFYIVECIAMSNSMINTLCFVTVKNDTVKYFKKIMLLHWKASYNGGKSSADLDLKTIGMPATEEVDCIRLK

SMILES	inhibition at 10 µM	IC50	Ca^2+ Mobilization % Inh @ 10 μM
COc1ccc(Cn2c(NCc3cccnc3N)nc(=O)n(Cc3ccc(SC)cc3)c2=O)cc1 [Cpd 24]	60%	115 nM	–
COc1ccc(Cn2c(NCc3ccc(-c4ccc(F)cc4)nc3)nc(=O)n(Cc3ccc(OC)cc3)c2=O)cc1 [Cpd 25]	89%	2740 nM	–
COc1ccc(Cn2c(NCc3cccnc3N)cc(=O)n(Cc3ccc(OC)cc3)c2=O)cc1 [Cpd 26]	84%	45 nM	–
COc1ccc(Cn2c(NCc3cccnc3NCCN(C)C)nc(=O)n(Cc3ccc(F)cc3)c2=O)cc1 [Cpd 27]	102%	88 nM	–
COCCNc1ncccc1CNc1nc(=O)n(Cc2ccc(F)cc2)c(=O)n1Cc1ccc(OC)cc1 [Cpd 28, 3-(4-Fluoro-benzyl)-1-(4-methoxy-benzyl)-6-{[2-(2-methoxy-ethylamino)-pyridin-3-ylmethyl]-amino}-1H-[1,3,5]triazine-2,4-dione]	85%	–	90% and 91%
COc1ccc(Cn2c(NCc3cccnc3NCCO)nc(=O)n(Cc3ccc(F)cc3)c2=O)cc1 [Cpd 29]	111%	110 nM	–
COc1ccc(Cn2c(NCc3cccnc3NCCN)nc(=O)n(Cc3ccc(F)cc3)c2=O)cc1 [Cpd 30]	68%	1240 nM	–
COc1ccc(Cn2c(NCc3cccnc3NC3CCCCC3)nc(=O)n(Cc3ccc(F)cc3)c2=O)cc1 [Cpd 31]	91%	939 nM	–
COc1ccc(Cn2c(NCc3ccc[n+]([O-])c3N)nc(=O)n(Cc3ccc(OC)cc3)c2=O)cc1 [Cpd 32]	78%	1220 nM	–
COc1ccc(Cn2c(=O)nc(NCc3cccnc3N)n(Cc3ccc(O)cc3)c2=O)cc1 [Cpd 33, 6-[(2-Amino-pyridin-3-ylmethyl)-amino]-1-(4-hydroxy-benzyl)-3-(4-methoxy-benzyl)-1H-[1,3,5]triazine-2,4-dione]	95%	49 nM and 77 nM	102%
CCCNc1ncccc1CNc1nc(=O)n(Cc2ccc(OC)cc2)c(=O)n1Cc1ccc(OC)cc1 [Cpd 34]	98%	81 nM	–
COc1ccc(Cn2c(=O)nc(NCc3cccnc3N)n(Cc3ccc(OC(F)F)cc3)c2=O)cc1 [Cpd 35, 6-[(2-Amino-pyridin-3-ylmethyl)-amino]-1-(4-difluoromethoxy-benzyl)-3-(4-methoxy-benzyl)-1H-[1,3,5]triazine-2,4-dione]	85%	34 nM	–
COC(=O)c1ccc(Cn2c(NCc3cccnc3N)nc(=O)n(Cc3ccc(OC)cc3)c2=O)cc1 [Cpd 36]	84%	270 nM	–
COc1ccc(Cn2c(=O)nc(NCc3cccnc3N)n(Cc3ccc(NC(C)=O)cc3)c2=O)cc1 [Cpd 37]	86%	250 nM	–
COc1ccc(Cn2c(=O)nc(NCc3cccnc3N)n(Cc3ccc(OC(F)(F)F)cc3)c2=O)cc1 [Cpd 38]	91%	391 nM	–
COc1ccc(Cn2c(NCc3ccccn3)nc(=O)n(Cc3ccc(OC)cc3)c2=O)cc1 [Cpd 39]	92%	63 nM and 82 nM	95%
COc1ccc(Cn2c(NCc3ccncc3)nc(=O)n(Cc3ccc(OC)cc3)c2=O)cc1 [Cpd 41]	72%	1060 nM	–
COc1ccc(Cn2c(NCc3cccnc3N)nc(=O)n(Cc3cccc(OC)c3)c2=O)cc1 [Cpd 42]	49%	> 10000 nM	–
COc1ccc(Cn2c(NCc3cccnc3N)nc(=O)n(Cc3ccccc3)c2=O)cc1 [Cpd 43]	78%	801 nM	–
COc1ccc(Cn2c(NCc3cccnc3N)nc(=O)n(Cc3ccc(C#N)cc3)c2=O)cc1 [Cpd 44]	66%	2020 nM	–
COc1ccc(Cn2c(NCc3cccnc3N)nc(=O)n(Cc3ccc(OC(F)(F)F)cc3)c2=O)cc1 [Cpd 45]	40%	> 10000 nM	–
CCOc1ccc(Cn2c(=O)nc(NCc3cccnc3N)n(Cc3ccc(OC)cc3)c2=O)cc1 [Cpd 46]	80%	522 nM	–
COc1ccc(Cn2c(NCc3cccnc3N)nc(=O)n(Cc3ccc([N+](=O)[O-])cc3)c2=O)cc1 [Cpd 47]	80%	826 nM	–
C=CCC(c1ccc(OC)cc1)n1c(=O)nc(NCc2cccnc2N)n(Cc2ccc(OC)cc2)c1=O (centres unmarked) [Cpd 48]	75%	956 nM	–
COc1ccc(Cn2c(NCc3cccnc3N)nc(=O)n(Cc3ccc(C(F)(F)F)cc3)c2=O)cc1 [Cpd 49]	64%	3170 nM	–

SMILES	inhibition at 10 µM	IC50	Ca^2+ Mobilization % Inh @ 10 μM
COCCNc1ncccc1CNc1nc(=O)n(Cc2ccc(OC)cc2)c(=O)n1Cc1ccc(OC)cc1 [Cpd 50]	91%	24 nM and 72 nM	100%
COc1ccc(Cn2c(NCc3cccnc3NCCN(C)C)nc(=O)n(Cc3ccc(OC)cc3)c2=O)cc1 [Cpd 51]	93%	207 nM	–
COc1ccc(Cn2c(=O)nc(NCc3cccnc3N)n(Cc3ccc(C(N)=O)cc3)c2=O)cc1 [Cpd 52]	94%	973 nM	–
COc1ccc(Cn2c(NCc3ccc[n+]([O-])c3)nc(=O)n(Cc3ccc(OC)cc3)c2=O)cc1 [Cpd 53]	45%	> 10000 nM	–
COc1ccc(Cn2c(NCc3cccnc3N)nc(=O)n(Cc3ccc(O)cc3)c2=O)cc1 [Cpd 54, 6-[(2-Amino-pyridin-3-ylmethyl)-amino]-3-(4-hydroxy-benzyl)-1-(4-methoxy-benzyl)-1H-[1,3,5]triazine-2,4-dione]	–	3470 nM and > 10000 nM	42% and 64%
COc1ccc(Cn2c(NCc3cccnc3N)nc(=O)n(Cc3cccc(F)c3)c2=O)cc1 [Cpd 55]	44%	> 10000 nM	–
COC(=O)c1ccc(Cn2c(=O)nc(NCc3cccnc3N)n(Cc3ccc(OC)cc3)c2=O)cc1 [Cpd 56]	47%	> 10000 nM	–
COc1ccc(Cn2c(NCc3cc(-c4ccccc4)cnc3N)nc(=O)n(Cc3ccc(OC)cc3)c2=O)cc1 [Cpd 57]	59%	4770 nM	–
COc1ccc(Cn2c(NCc3c(OC)ccnc3N)nc(=O)n(Cc3ccc(OC)cc3)c2=O)cc1 [Cpd 58]	95%	89 nM	–
COc1ccc(Cn2c(NCc3ccc(C)nc3)nc(=O)n(Cc3ccc(OC)cc3)c2=O)cc1 [Cpd 59]	94%	178 nM	–
COc1ccc(Cn2c(NCc3cnc(C)cc3C)nc(=O)n(Cc3ccc(F)cc3)c2=O)cc1 [Cpd 60]	88%	350 nM	–
COc1ccc(Cn2c(NCc3cnc(C)cc3C)cc(=O)n(Cc3ccc(OC)cc3)c2=O)cc1 [Cpd 61]	87%	–	101%
COc1ccc(Cn2c(NCc3cc(C)ccn3)nc(=O)n(Cc3ccc(OC)cc3)c2=O)cc1 [Cpd 62]	52%	2030 nM	–
CCc1ccc(Cn2c(NCc3cccnc3N)nc(=O)n(Cc3ccc(OC)cc3)c2=O)cc1 [Cpd 63]	83%	271 nM	–
COc1ccc(Cn2c(NCc3cccc(C(F)(F)F)n3)nc(=O)n(Cc3ccc(OC)cc3)c2=O)cc1 [Cpd 64]	50%	5260 nM and 8510 nM	51%
COc1ccc(Cn2c(NCc3ncccc3C)nc(=O)n(Cc3ccc(OC)cc3)c2=O)cc1 [Cpd 65]	–	> 10000 nM	–
COc1ccc(Cn2c(NCc3cccnc3NCCSC)nc(=O)n(Cc3ccc(OC)cc3)c2=O)cc1 [Cpd 66]	92%	401 nM	–
COc1ccc(Cn2c(NCc3cccnc3NCCC(C)C)nc(=O)n(Cc3ccc(OC)cc3)c2=O)cc1 [Cpd 67]	55%	4820 nM	–
COc1ccc(Cn2c(NCc3cccnc3NCC3CCCO3)nc(=O)n(Cc3ccc(OC)cc3)c2=O)cc1 (centres unmarked) [Cpd 68]	95%	217 nM	–
COc1ccc(Cn2c(NCc3cccnc3NCc3ccco3)nc(=O)n(Cc3ccc(OC)cc3)c2=O)cc1 [Cpd 69]	93%	337 nM	–
CCN1CCCC1CNc1ncccc1CNc1nc(=O)n(Cc2ccc(OC)cc2)c(=O)n1Cc1ccc(OC)cc1 (centres unmarked) [Cpd 70]	94%	560 nM	–
COCCNc1ncccc1CNc1nc(=O)n(CCc2ccccc2)c(=O)n1Cc1ccc(OC)cc1 [Cpd 71]	38%	> 10000 nM	–
COCCNc1ncccc1CNc1nc(=O)n(CCOc2ccccc2)c(=O)n1Cc1ccc(OC)cc1 [Cpd 72]	81%	1170 nM	–
COCCNc1ncccc1CNc1nc(=O)n(CC2COc3ccccc3O2)c(=O)n1Cc1ccc(OC)cc1 (centres unmarked) [Cpd 73]	58%	5930 nM	–
